According to patent US20120208750A1, “USE OF PROTEIN KINASE C DELTA (PKCD) INHIBITORS TO TREAT DIABETES, OBESITY, AND HEPATIC STEATOSIS” (JOSLIN DIABETES CENTER, INC., priority 2009, published 2012):

B1: leptin: recombinant mouse leptin delivered by osmotic pump (protein, UniProt P41160 22-167, looked up)
Leptin: VPIQKVQDDTKTLIKTIVTRINDISHTQSVSAKQRVTGLDFIPGLHPILSLSKMDQTLAVYQQVLTSLPSQNVLQIANDLENLRDLLHLLAFSKSCSLPQTSGLQKPESLDGVLEASLYSTEVVALSRLQGSLQDILQQLDVSPEC

Tests used:
Format in all cases: in vivo, mouse
PKCd [1] = assay: PKCd mRNA expression in streptozotocin diabetic mice and insulin- or phlorizin-rescued mice (qPCR); details: STZ diabetic mice; rescue with s.c. insulin pellets or phlorizin 0.4 g/kg s.c. twice daily 10 days, FIG. 2F-G
Description: (§1) Expression of PKCd mRNA and protein was assayed in livers mice of various genotypes and under various conditions of diet. For all mRNA studies samples were prepared using RNeasy extraction kit according to the manufacturer protocol (QIAGEN), mRNA was measured by quantitative real-time PCR (qPRC), and results were normalized to TBP. For western blot analysis, 40-50 ug of each extract was loaded per lane. Each lane represents an individual animal. On a normal chow diet at 24 weeks of age, B6 mice have ˜60% higher levels of PKCd mRNA in liver than 129 mice (1.11±0.11 vs. 0.71±0.04, p<0.02) (FIG. 1A). […] These differences in PKCd messenger expression lead to similar differences in expression at the protein level when assessed by Western blot analysis of liver extracts (FIG. 1B). This difference in PKCd expression between B6 and 129 mice was also observed at 6 weeks of age (FIG. 1C), when 129 mice actually weigh slightly more than the B6 (22.1±0.5 vs. 19.8±0.3 g, p<0.001) and have identical glucose and insulin levels.
Streptozotocin treatment was performed as follows. Mice at 6 weeks of age received either daily i.p. injections of sodium citrate (pH 4.3) for controls or STZ (Sigma) resuspended in sodium citrate, 100 μg per g of body weight for three consecutive days. When these mice achieved fed glucose levels of >400 mg/dl for three consecutive days, they were separated into two equal groups. One group was not treated, while the other were treated with s.c. insulin pellets (LinShin, Toronto, ON, Canada), to obtain fed glucose levels of <200 mg/dl for at least three consecutive days. For phlorizin treatment of diabetic mice, male 8-week-old C57B1/6 mice were treated with a single intraperitoneal injection (200 μg/g body weight) of STZ (Sigma). PHZ (Sigma) was dissolved in a solution containing 10% ethanol, 15% DMSO, and 75% saline and was injected subcutaneously at a dose of 0.4 g/kg twice daily for 10 days from 8 days after the STZ injection. Control mice were injected with the same volume of vehicle.

PKCd [2] = assay: PKCd mRNA expression in liver of leptin and/or insulin treated ob/ob mice (qPCR); details: short-term infusion (osmotic pump 4 days; insulin pellets s.c.), FIG. 2C
Description: as §1
Although the difference in PKCd expression can be observed between B6 and 129 mice prior to the onset of obesity, obesity and insulin resistance also regulate PKCd. […]

PKCd [3] = assay: Western blot of liver protein expression in tunicamycin-treated mice (ER stress): PKCd; details: 1 μg/g i.p., 2, 4, 6 and 8 hours post-injection, FIG. 2E
Description: as §1
To induce an inflammation in vivo, mice were injected intraperitoneally with 100 μg LPS (Escherichia coli 55:B5; Sigma) or sterile saline as control. Mice were sacrificed 18 hours post-injection. […]

Bip = assay: Western blot of liver protein expression in tunicamycin-treated mice (ER stress): Bip; details: 1 μg/g i.p., 2, 4, 6 and 8 hours post-injection, FIG. 2E

Molecule | differences in PKCd expression vs control (PKCd [1]) | reversal of increased expression of PKCd in liver (PKCd [2]) | PKCd protein expression in liver during onset of ER stress (PKCd [3]) | ER stress chaperone protein Bip expression in liver (Bip)
CN(N=O)C(=O)N[C@H]1C(O)O[C@H](CO)[C@@H](O)[C@@H]1O (mixture of isomers) [STZ, streptozotocin] | no differences |  |  | 
O=C(CCc1ccc(O)cc1)c1c(O)cc(O)cc1O[C@@H]1O[C@H](CO)[C@@H](O)[C@H](O)[C@H]1O [phlorizin] | no differences |  |  | 
insulin | no differences | not reversed |  | 
tunicamycin |  |  | did not observe any alterations | clearly induced
B1 |  | not reversed |  | 
